Relative viability data for five molecules are collected here from the supplement of paper PMC10307832.

In the first assay the test system is NCI-H1915. Put plainly: relative viability (nuclei count vs DMSO), 5 days (fraction); higher = more cells survive. The conditions noted are these: first compound 8 µM. Summed up: (§1)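 Relative viability was taken as the ratio of nuclei in treated wells to nuclei in vehicle wells. Lung cancer cell lines in 1536-well plates received compounds by pin tool one day after seeding, either one drug alone or a fixed anchor-drug dose plus five library-drug doses (not always all listed) in √10 steps. Nuclei were counted on 4× images after 5 days of treatment, and values are medians of duplicate plates.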
Consider `CCCCCCCCCCCC1=C(O)C(=O)C=C(O)C1=O` [Embelin] + CC(C)C[C@H](NC(=O)[C@H](Cc1ccccc1)NC(=O)c1cnccn1)B(O)O [Bortezomib] (partner 0.002 µM), for which the relative viability was 0.998.
The molecule `CCCCCCCCCCCC1=C(O)C(=O)C=C(O)C1=O` [Embelin] + CS(=O)(=O)CCNCc1ccc(-c2ccc3ncnc(Nc4ccc(OCc5cccc(F)c5)c(Cl)c4)c3c2)o1 [Lapatinib] (partner 2 µM) came in with a relative viability of 0.956.
Take `CCCCCCCCCCCC1=C(O)C(=O)C=C(O)C1=O` [Embelin] + C[C@@H](Oc1cc(-c2cnn(C3CCNCC3)c2)cnc1N)c1c(Cl)ccc(F)c1Cl [Crizotinib] (partner 1 µM): the relative viability was 0.97.

Another assay deals with ChaGo-K-1. The assay is described as above. The conditions noted are these: first compound 0.08 µM. In outline:
as §1
Turning to `CCCCCCCCCCCC1=C(O)C(=O)C=C(O)C1=O` [Embelin] + O=C(CCCCCCC(=O)Nc1ccccc1)NO [Vorinostat] (partner 1 µM), the relative viability was found to be 0.739.
The same measure, in the same setting: with `CCCCCCCCCCCC1=C(O)C(=O)C=C(O)C1=O` [Embelin] + CC(C)C[C@H](NC(=O)[C@H](Cc1ccccc1)NC(=O)c1cnccn1)B(O)O [Bortezomib] (partner 0.002 µM) the figure was 0.988; with `CCCCCCCCCCCC1=C(O)C(=O)C=C(O)C1=O` [Embelin] + C[C@@H](Oc1cc(-c2cnn(C3CCNCC3)c2)cnc1N)c1c(Cl)ccc(F)c1Cl [Crizotinib] (partner 1 µM), 1.13.

Still in this assay, the particulars now being: first compound 0.8 µM.
With `CCCCCCCCCCCC1=C(O)C(=O)C=C(O)C1=O` [Embelin] + O=C(CCCCCCC(=O)Nc1ccccc1)NO [Vorinostat] (partner 1 µM), the relative viability worked out at 0.782.
Same read-out and setting: with `CCCCCCCCCCCC1=C(O)C(=O)C=C(O)C1=O` [Embelin] + CC(C)C[C@H](NC(=O)[C@H](Cc1ccccc1)NC(=O)c1cnccn1)B(O)O [Bortezomib] (partner 0.002 µM) the figure was 1.37; with `CCCCCCCCCCCC1=C(O)C(=O)C=C(O)C1=O` [Embelin] + C[C@@H](Oc1cc(-c2cnn(C3CCNCC3)c2)cnc1N)c1c(Cl)ccc(F)c1Cl [Crizotinib] (partner 1 µM), 1.22.

Staying with this assay, now noted: first compound 2.53 µM.
With `CCCCCCCCCCCC1=C(O)C(=O)C=C(O)C1=O` [Embelin] + O=C(CCCCCCC(=O)Nc1ccccc1)NO [Vorinostat] (partner 1 µM), the relative viability came out at 0.871.
Same read-out and setting: with `CCCCCCCCCCCC1=C(O)C(=O)C=C(O)C1=O` [Embelin] + CC(C)C[C@H](NC(=O)[C@H](Cc1ccccc1)NC(=O)c1cnccn1)B(O)O [Bortezomib] (partner 0.002 µM) the figure was 0.946.
On to `CCCCCCCCCCCC1=C(O)C(=O)C=C(O)C1=O` [Embelin] + C[C@@H](Oc1cc(-c2cnn(C3CCNCC3)c2)cnc1N)c1c(Cl)ccc(F)c1Cl [Crizotinib] (partner 1 µM), for which the relative viability came out at 1.32.

The same assay, now with this note: first compound 8 µM.
As for `CCCCCCCCCCCC1=C(O)C(=O)C=C(O)C1=O` [Embelin] + O=C(CCCCCCC(=O)Nc1ccccc1)NO [Vorinostat] (partner 1 µM), the relative viability was 0.755.
Same read-out and setting: with `CCCCCCCCCCCC1=C(O)C(=O)C=C(O)C1=O` [Embelin] + CC(C)C[C@H](NC(=O)[C@H](Cc1ccccc1)NC(=O)c1cnccn1)B(O)O [Bortezomib] (partner 0.002 µM) the figure was 0.793; with `CCCCCCCCCCCC1=C(O)C(=O)C=C(O)C1=O` [Embelin] + C[C@@H](Oc1cc(-c2cnn(C3CCNCC3)c2)cnc1N)c1c(Cl)ccc(F)c1Cl [Crizotinib] (partner 1 µM), 1.24.

A further assay deals with HOP-62. Described as above. The conditions noted are these: first compound 0.08 µM. Summed up:
as §1
Molecule `CCCCCCCCCCCC1=C(O)C(=O)C=C(O)C1=O` [Embelin] + O=C(CCCCCCC(=O)Nc1ccccc1)NO [Vorinostat] (partner 1 µM) showed a relative viability of 0.634.
The same measure, in the same setting: with `CCCCCCCCCCCC1=C(O)C(=O)C=C(O)C1=O` [Embelin] + C[C@]1(O)C[C@@H](c2nc(-c3ccc4ccc(-c5ccccc5)nc4c3)c3c(N)nccn32)C1 [Linsitinib] (partner 1 µM) the figure was 0.937.
On the same count and under the same terms, with `CCCCCCCCCCCC1=C(O)C(=O)C=C(O)C1=O` [Embelin] + CC(C)C[C@H](NC(=O)[C@H](Cc1ccccc1)NC(=O)c1cnccn1)B(O)O [Bortezomib] (partner 0.002 µM) the figure was 0.924; with `CCCCCCCCCCCC1=C(O)C(=O)C=C(O)C1=O` [Embelin] + CS(=O)(=O)CCNCc1ccc(-c2ccc3ncnc(Nc4ccc(OCc5cccc(F)c5)c(Cl)c4)c3c2)o1 [Lapatinib] (partner 2 µM), 1.01; with `CCCCCCCCCCCC1=C(O)C(=O)C=C(O)C1=O` [Embelin] + C[C@@H](Oc1cc(-c2cnn(C3CCNCC3)c2)cnc1N)c1c(Cl)ccc(F)c1Cl [Crizotinib] (partner 1 µM), 0.957.

The assay is the same for the next values; noted with them: first compound 0.8 µM.
Regarding `CCCCCCCCCCCC1=C(O)C(=O)C=C(O)C1=O` [Embelin] + O=C(CCCCCCC(=O)Nc1ccccc1)NO [Vorinostat] (partner 1 µM), the relative viability was determined as 0.812.
On the same count and under the same terms, with `CCCCCCCCCCCC1=C(O)C(=O)C=C(O)C1=O` [Embelin] + C[C@]1(O)C[C@@H](c2nc(-c3ccc4ccc(-c5ccccc5)nc4c3)c3c(N)nccn32)C1 [Linsitinib] (partner 1 µM) the figure was 1.05; with `CCCCCCCCCCCC1=C(O)C(=O)C=C(O)C1=O` [Embelin] + CC(C)C[C@H](NC(=O)[C@H](Cc1ccccc1)NC(=O)c1cnccn1)B(O)O [Bortezomib] (partner 0.002 µM), 0.846.
Still for that read-out and setting: with `CCCCCCCCCCCC1=C(O)C(=O)C=C(O)C1=O` [Embelin] + CS(=O)(=O)CCNCc1ccc(-c2ccc3ncnc(Nc4ccc(OCc5cccc(F)c5)c(Cl)c4)c3c2)o1 [Lapatinib] (partner 2 µM) the figure was 1.08; with `CCCCCCCCCCCC1=C(O)C(=O)C=C(O)C1=O` [Embelin] + C[C@@H](Oc1cc(-c2cnn(C3CCNCC3)c2)cnc1N)c1c(Cl)ccc(F)c1Cl [Crizotinib] (partner 1 µM), 0.926.

The same assay, now with this note: first compound 2.53 µM.
For `CCCCCCCCCCCC1=C(O)C(=O)C=C(O)C1=O` [Embelin] + O=C(CCCCCCC(=O)Nc1ccccc1)NO [Vorinostat] (partner 1 µM), the relative viability was found to be 0.504.
On the same count and under the same terms, with `CCCCCCCCCCCC1=C(O)C(=O)C=C(O)C1=O` [Embelin] + C[C@]1(O)C[C@@H](c2nc(-c3ccc4ccc(-c5ccccc5)nc4c3)c3c(N)nccn32)C1 [Linsitinib] (partner 1 µM) the figure was 1.06.
In turn, `CCCCCCCCCCCC1=C(O)C(=O)C=C(O)C1=O` [Embelin] + CC(C)C[C@H](NC(=O)[C@H](Cc1ccccc1)NC(=O)c1cnccn1)B(O)O [Bortezomib] (partner 0.002 µM) returned a relative viability of 1.15.
